Patent publication US20260335278A1, “PHYTOCHEMICAL FORMULATIONS FOR TREATING STRESS AND ANXIETY” (GBS GLOBAL BIOPHARMA, INC., priority 2022, published 2026)
Entries after “also recorded” stand apart in the source; their conditions may differ.

What was measured:
Type in all cases: in vivo
zebrafish larvae [1] = assay: Baseline activity / baseline exposure (90 min continuous light), zebrafish larvae; parameters: key to Baseline Exposure: +: statistically significant increase; −−: statistically significant decrease
Protocol: (§1) The validation process for the phytochemicals derived from Piper methysticum, other Piper plant family members, and non-Piper medicinal plants and fungi includes testing the selected phytochemical drug candidates as singles, doubles, and triples in two complementary zebrafish models of stress and anxiety. These two complementary assays are the Light/Dark Stress Response test that is illustrated in FIG. 5 (after the 90 min study of the effect of the compounds and mixtures on Baseline Activity) and the Thigmotaxis assay, as illustrated in FIG. 61A and FIG. 61B, which is also known as the wall flower effect, like the social anxiety of humans. Zebrafish larvae show a clear and distinct pattern of swimming in response to rapidly alternating light and dark conditions in the Light/Dark Response testing, which trigger a flight or fight response and darting behavior indicative of great stress and anxiety. The Light/Dark testing uses a control group to automatically track, using an automatic tracking device, the larval behavior in response to dark to light conditions. The thigmotaxis assay also uses automatic tracking and appropriate controls. In multiple embodiments additional Zebrafish larvae are given various concentrations of the selected phytochemicals from Table 1 for tracking Light/Dark Responses or Thigmotactic behavioral changes in the treated zebrafish larvae. Table 2A and Table 2B summarize the results from both assays when the individual phytochemicals are exposed to the: Baseline Activity (90 minutes in the light), Light/Dark Stress Response (5 min alternating pulses of dark and light for 30 min.), and Thigmotaxis Activity (% of time in the light center of the chamber (anxiety inducing) versus % of time near the dark (soothing) wall).
(§2) The present invention includes a process to discover new pharmaceutical medicines for the treatment of stress, anxiety and anxiety-related disorders in a human. The preclinical testing included the effects of these 14 individual phytochemicals and 300 ratio-controlled mixtures of these phytochemicals in assays measuring the behavioral stress response patterns of zebrafish larvae. Larval behavior is assessed with at least one functional assay of stress or anxiety following acute exposure to each phytochemical sample formulated. Stereotypical basal activity patterns of zebrafish will be assessed to determine the potential side effects of the phytochemical samples in a concentration dependent manner for each compound on two zebrafish models of stress and anxiety: 1) the Light/Dark Stress Response (5 min alternating pulses of light and dark) in small to med well plates (96-48 well plates), and 2) Thigmotaxis assays in large well plates with 50% of the swimming surface colored dark around the margins of the well in large (24-12 well plates) will be assessed for their efficacy in testing the phytochemicals.
(§3) The discovery methods of the present invention include testing the effects of up to 20 phytochemicals and 40 mixtures of the phytochemicals on behavioral stress response patterns of zebrafish larvae. Larval behavior was assessed with an automated video tracking system following acute exposure to each phytochemical sample. Stereotypical basal activity patterns of larvae were assessed to determine the concentration dependent effect of each compound. A zebrafish model of thigmotaxis in large well plates (24-12 well plates) was assessed for their efficacy in testing the phytochemicals. In the discovery method, fertilized eggs were kept on a re-circulating system in baskets until use at 120 hpf (5 days). At 120 hpf, larvae were loaded into 48 well plates in buffered fish media and acclimated to the plate in a heated light incubator for 2 hours. Larvae were acutely exposed with drug or controls at a 10× concentration and the plate was quickly transferred to a behavioral tracking system. Acute behavioral run was 90 minutes (baseline activity) in the light followed by alternating 5 minute bins (total 2 hours). […]

zebrafish larvae [2] = assay: Light/Dark Stress Response (5 min alternating pulses of dark and light for 30 min); parameters: key to Light/Dark Stress Response: +: statistically significant increase; −−: statistically significant decrease
Protocol: as §1, §2, §3

zebrafish larvae [3] = assay: Zebrafish models of stress and anxiety, overall verdict (Light/Dark Stress Response and thigmotaxis); settings: for Anti-Anxiety Potential?: API used singly
Protocol: as §1
Additionally, testing is done with mixtures of these same selected phytochemicals from P. methysticum and other plants selected by our in silico analyses. The testing results are analyzed using artificial intelligence systems to rank effectiveness in reducing the Light/Dark response and thigmotactic behavior for the
The A1 enabled drug discovery platform database search data was evaluated to select the best drug candidates from: A Piper methysticum, B. within the Piper plant family (>200 Piper spp.), or C. traditional medicines to begin testing […] (API) singles, doubles, and triples in two complementary zebrafish models of anxiety light/dark startle response testing and thigmotaxis assays.
as §2
The discovery methods of the present invention include testing the effects of up to 20 phytochemicals and 40 mixtures of the phytochemicals on behavioral stress response patterns of zebrafish larvae. Larval behavior was assessed with an automated video tracking system following acute exposure to each phytochemical sample. […]

zebrafish larvae [4] = assay: Thigmotaxis assay; parameters: key: +: statistically significant increase; −−: statistically significant decrease
Protocol: as §1, §2, §3

| Compound | Baseline Exposure (zebrafish larvae [1]; Med) | baseline Activity (90 min light) (zebrafish larvae [1]; vehicle not given) | Light/Dark Stress Response (zebrafish larvae [2]; High) | Light/Dark Stress Response (zebrafish larvae [2]; Med) | Light/Dark Stress Response (5 min light/dark pulses) (zebrafish larvae [2]; vehicle not given) | Anti-Anxiety Potential? (zebrafish larvae [3]) | Therapeutic Potential (zebrafish larvae [3]; vehicle not given) | Baseline Exposure (zebrafish larvae [1]; High) | baseline Activity (90 min light) (zebrafish larvae [1]; vehicle 1% MeOH) | Light/Dark Stress Response (5 min light/dark pulses) (zebrafish larvae [2]; vehicle 1% MeOH) | Therapeutic Potential (zebrafish larvae [3]; vehicle 1% MeOH) | Baseline Exposure (zebrafish larvae [1]; Low) | Light/Dark Stress Response (zebrafish larvae [2]; Low) | Thigmotaxis Model (zebrafish larvae [4]; High) | Thigmotaxis Model (zebrafish larvae [4]; Med) |
| --- | --- | --- | --- | --- | --- | --- | --- | --- | --- | --- | --- | --- | --- | --- | --- |
| CCCCCCCCCCCCCCCC(=O)NCCO [N-palmitoyl ethanolamide (PEA), N-palmitoyl ethanolamide] | + | baseline activity not like controls; also recorded: (increased at all concentrations) | + | + | stress response sometimes increased | No | No |  |  |  |  |  |  |  |  |
| COc1c(O)cc(O)c2c(=O)cc(-c3ccccc3)oc12 [Wogonin (hydrate), wogonin] | + |  |  |  |  | No |  | + | baseline activity not like controls; also recorded: (increased at med/high | no reduction in stress response | No |  |  |  |  |
| O=c1cc(-c2ccccc2)oc2cc(O)c(O)c(O)c12 [bacalein] | + |  | −− | −− |  | Yes |  | −− | baseline activity not like controls; also recorded: (increased at low concentrations,; also recorded: sedating at higher concentrations) | stress response is reduced, but sedation |  |  |  |  |  |
| C=C1CC/C=C(\C)CC[C@@H]2[C@@H]1CC2(C)C [beta caryophyllene] | + |  | −− |  |  | No |  | + | baseline activity not like controls; also recorded: (increased at all concentrations); also recorded: conc., but baseline activity is concerning | stress response reduced in highest | No | + | + |  |  |
| C=C(C)[C@@H]1CCC(C)=C[C@H]1c1c(O)cc(CCCCC)cc1O [cannabidiol (CBD), cannabidiol, reference compound] | −− |  | −− | −− |  | Yes |  | −− | baseline activity not like controls; also recorded: (increased at low concentrations,; also recorded: sedating at higher concentrations) | stress response is reduced |  | + | + | −− |  |
| C=CCc1ccc(OC)cc1 [methyl chavicol (4-allylanisole), 4-allylanisole] | −− |  | + |  |  | No |  | −− | baseline activity not like controls; also recorded: (decreased at high concentrations) | no reduction in stress response, some | No |  |  |  |  |
| COc1cc(/C=C/C(=O)N2CCC=CC2=O)cc(OC)c1OC [piperlongumine] | + |  | −− |  |  | Yes |  |  | baseline activity not like controls; also recorded: (increased at low concentrations,; also recorded: sedating at higher concentrations) | stress response is reduced |  |  | + | −− | −− |
| farnesene | + |  | −− |  |  | Yes |  | + |  | no reduction in stress response | No |  |  |  |  |
